Read-outs that look alike come from different tables or passages of the source.

Data on three molecules can be found in patent publication US20150126368A1, “METHOD OF PROVIDING PLANT WITH STRESS RESISTANCE” (Nippon Soda Co., Ltd., priority 2012, published 2015).

For data set [1], the system named is Tomato nursery plants (breed: Momotaro). The class given is in vivo. The settings on record: spray, 7 days; for phytotoxicity index: index 0 to 10. The method, then: N,N-dimethylformamide based solutions were prepared according to the formulations shown in Table 10 to give chemical solutions for the tests.
Tomato nursery plants (breed: Momotaro) grown up to the 4 leaf stage in a greenhouse were prepared.
The above chemical solution was sprayed to the stem and leaf parts of the above tomato nursery plants in an amount of liquid dropping, and then air dried. They were allowed to grow for 7 days under the average temperature and humidity conditions on March in Japan.
Subsequently, phytotoxicity such as a degree of leaf browning and outgrowth inhibition was investigated.
Phytotoxicity was evaluated by 11 levels of phytotoxicity indices of 0 (with no disorder) to 10 (withering to death).
Chemical poisoning injury relief percentages as compared with a region treated with solvent DMF only were computed by the following formula.
Chemical poisoning injury relief percentage=(phytotoxicity index of region treated with solvent only)−(phytotoxicity index of each treated region))/(phytotoxicity index of region treated with solvent only)×100

Data set [2] concerns tomato yellow leaf curl virus (TYLCV). Briefly: Test for symptom relief effects against tomato yellow leaf curl virus disease. In kind it is in vivo. The conditions noted are these: 500 ppm alone. The method, then: N,N-dimethylformamide based solutions were prepared according to the formulations shown in Table 18 to give chemical liquids for the tests.
Tomato nursery plants (breed: Momotaro) grown up to the 8 leaf stage in a greenhouse were prepared.
Tomato nursery plants suffering from tomato yellow leaf curl virus (TYLCV) were used as inoculation sources.
A diseased plant was obliquely cut in round slices at the stem, and graft-inoculated to a tomato nursery plant. In order to prevent dryness, parafilm was wrapped around the grafted portion for protection.
After the graft inoculation, the above chemical solution was sprayed on the stem and leaf part of the tomato nursery plant in a sufficient amount. Then, the above chemical solution was sprayed 3 times at intervals of about one week in a sufficient amount. Symptoms of tomato yellow leaf curl disease were investigated at an elapsed time of 25 days.
Symptoms were evaluated by 5 levels of onset indices of 0 (with no onset) to 4 (fulminant).
Onset inhibition percentages as compared with a region treated with solvent DMF only (Chemical solution 3) were computed by the following formula.
Onset inhibition percentage=(onset index of region treated with solvent only)−(onset index of each treatment region))/(onset index of region treated with solvent only)×100
Further, the expectation values of onset inhibition percentages were computed based on the Colby's equation.
The Colby's equation is E=M+N−MN/100. In the equation, E represents the expectation value of an onset inhibition percentage (%), and M represents an onset inhibition percentage (%) calculated from measurements when the substance (A1) is used alone, and N represent an onset inhibition percentage (%) calculated from measurements when the substance (A2) is used alone.

[3] abbreviates: agric. chemical 100 ppm alone (reference).
Setting [4] is: agric. chemical 200 ppm alone (reference).

`CO/C=C(/C(=O)OC)c1ccccc1Oc1cc(Oc2ccccc2C#N)ncn1` [Azoxystrobin]: the “relief percents of phytotoxicity (%)” value in data set [1] (setting [3]) and in data set [1] (setting [4]) was 0% throughout. For the same molecule, the values for the phytotoxicity index in data set [1] (agric. chemical 100 ppm alone) and in data set [1] (agric. chemical 200 ppm alone) were 5 and 6, respectively.
For `O=C1O[C@H]([C@@H](O)CO)C(O)=C1O[C@H]1O[C@H](CO)[C@@H](O)[C@H](O)[C@H]1O` [Ascorbyl glucoside], the “Onset percentage(%)” value in data set [2] (tomato graft-inoculated, sprayed 4 times, 25 days) was 40%. In addition, the “Onset inhibition percentage(%)” value in data set [2] (vs solvent DMF only, 25 days) amounted to 20%. Moreover, in data set [2] (expectation value of onset inhibition percentage), the “Expectation value(%)” value was 20%.
For the molecule `O=[N+]([O-])c1cc(C(F)(F)F)c(Cl)c([N+](=O)[O-])c1Nc1ncc(C(F)(F)F)cc1Cl` [Fluazinam], the “relief percents of phytotoxicity (%)” value in data set [1] (setting [3]) and in data set [1] (setting [4]) was 0% throughout. For the same molecule, the phytotoxicity index in data set [1] (agric. chemical 100 ppm alone) and in data set [1] (agric. chemical 200 ppm alone) was 6 each time.
